Laboratory results from ChEMBL document CHEMBL3352804, “One-pot synthesis of polyunsaturated fatty acid amides with anti-proliferative properties” (Bioorg Med Chem Lett, 2014).

Columns and labels:
[1] = system: A549; assay: Growth inhibition of human A549 cells at 3 uM after 48 hrs by trypan blue dye exclusion method; assay type: functional; conditions: A549, 48 h, read-out: GI
[2] = system: A549; assay: Growth inhibition of human A549 cells after 48 hrs by trypan blue dye exclusion method; assay type: functional, cell-based; conditions: A549, 48 h

| IC50 [2] [nM] | Structure (SMILES) | inhibition of growth at 3 µM [1] [%] |
| --- | --- | --- |
| – | CC/C=C\C/C=C\C/C=C\C/C=C\C/C=C\C/C=C\CCC(=O)NCCO | 29.3 |
| 1500 | CC/C=C\C/C=C\C/C=C\C/C=C\C/C=C\C/C=C\CCC(=O)OCC(O)CO (stereo unspecified) | 59.1 |
| – | CC/C=C\C/C=C\C/C=C\C/C=C\C/C=C\CCCC(=O)OCC(O)CO (stereo unspecified) | 51.4 |
| – | CC/C=C\C/C=C\C/C=C\C/C=C\C/C=C\CCCCCC(=O)OCC(O)CO (stereo unspecified) | 74.5 |
| 480 | CC/C=C\C/C=C\C/C=C\C/C=C\C/C=C\C/C=C\CCC(=O)NC(CO)CO | 77.4 |
| – | CC/C=C\C/C=C\C/C=C\C/C=C\C/C=C\C/C=C\CCC(=O)NCC(O)CN (stereo unspecified) | 38.3 |
| – | CC/C=C\C/C=C\C/C=C\C/C=C\C/C=C\C/C=C\CCC(=O)NCC(O)CNC(=O)CC/C=C\C/C=C\C/C=C\C/C=C\C/C=C\C/C=C\CC | 83.8 |
| – | CC/C=C\C/C=C\C/C=C\C/C=C\C/C=C\C/C=C\CCC(=O)NCC(O)CO (stereo unspecified) | 88.7 |
| – | CC/C=C\C/C=C\C/C=C\C/C=C\C/C=C\CCCC(=O)NC(C)CO (stereo unspecified) | 98.4 |
| – | CC/C=C\C/C=C\C/C=C\C/C=C\C/C=C\CCCC(=O)NCCO | 70.9 |
| – | CC/C=C\C/C=C\C/C=C\C/C=C\C/C=C\CCCC(=O)NC(CO)CO | 84.2 |
| 250 | CC/C=C\C/C=C\C/C=C\C/C=C\C/C=C\C/C=C\CCC(=O)N[C@H](C)CO | 98.3 |
| – | CC/C=C\C/C=C\C/C=C\C/C=C\C/C=C\C/C=C\CCC(=O)NCCNC(=O)CC/C=C\C/C=C\C/C=C\C/C=C\C/C=C\C/C=C\CC | 13 |
| – | CC/C=C\C/C=C\C/C=C\C/C=C\C/C=C\C/C=C\CCC(=O)NC[C@@H](O)CO | 48.1 |
| – | CC/C=C\C/C=C\C/C=C\C/C=C\C/C=C\C/C=C\CCC(=O)NC[C@H](O)CO | 42.3 |
| – | CC/C=C\C/C=C\C/C=C\C/C=C\C/C=C\C/C=C\CCC(=O)NC(CO)C(=O)O (stereo unspecified) | 68.7 |
| – | CC/C=C\C/C=C\C/C=C\C/C=C\C/C=C\CCCCCC(=O)NCCO | 96.9 |
| – | CC/C=C\C/C=C\C/C=C\C/C=C\C/C=C\CCCCCC(=O)NCC(O)CNC(=O)CCCCC/C=C\C/C=C\C/C=C\C/C=C\C/C=C\CC | 97.7 |
| – | CC/C=C\C/C=C\C/C=C\C/C=C\C/C=C\CCCCCC(=O)NC[C@@H](O)CO | 47.4 |
| – | CC/C=C\C/C=C\C/C=C\C/C=C\C/C=C\CCCCCC(=O)NC[C@H](O)CO | 31.6 |
| – | CC/C=C\C/C=C\C/C=C\C/C=C\C/C=C\CCCCCC(=O)NC(CO)CO | 97.4 |
| – | CC/C=C\C/C=C\C/C=C\C/C=C\C/C=C\CCCC(=O)OCCCN(C)C | 95 |
| – | CC/C=C\C/C=C\C/C=C\C/C=C\C/C=C\CCCC(=O)NCCCNC | 67.8 |
